The source of these data is PMC2959128 (Journal of the American Chemical Society, 2010).

The experiment has as its target T1, phosphopantetheinyl transferase Sfp (Bacillus subtilis, UniProt P39135).
T1 sequence (P39135 1-224): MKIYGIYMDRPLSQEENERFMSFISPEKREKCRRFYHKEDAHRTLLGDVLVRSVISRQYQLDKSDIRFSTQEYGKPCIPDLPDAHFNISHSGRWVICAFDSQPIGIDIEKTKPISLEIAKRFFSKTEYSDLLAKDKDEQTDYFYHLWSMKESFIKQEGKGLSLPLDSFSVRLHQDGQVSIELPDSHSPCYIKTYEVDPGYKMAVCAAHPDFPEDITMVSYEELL
Nature of the experiment: acyl-phosphopantetheinyl transfer to apo-ACP. The note with it: DEBS apo-ACP6 as acceptor. The class given is biochemical.

SMILES strings stand for the structures.

On to `CC[C@@H](O)[C@@H](C)C(=O)SCCNC(=O)CCNC(=O)[C@H](O)C(C)(C)COP(=O)(O)OP(=O)(O)OC[C@H]1O[C@@H](n2cnc3c(N)ncnc32)[C@H](O)[C@@H]1OP(=O)(O)O` [2a-SCoA], for which the “acyl-phosphopantetheinyl transfer to apo-ACP; LC-ESI(+)-MS” value was “from DEBS apo-ACP6 using the phosphopantetheinyl transferase Sfp”.

Turning to `CC/C=C(\C)C(=O)SCCNC(=O)CCNC(=O)[C@H](O)C(C)(C)COP(=O)(O)OP(=O)(O)OC[C@H]1O[C@@H](n2cnc3c(N)ncnc32)[C@H](O)[C@@H]1OP(=O)(O)O` [3-SCoA], the “acyl-phosphopantetheinyl transfer to apo-ACP; LC-ESI(+)-MS” value was “from DEBS apo-ACP6 using the phosphopantetheinyl transferase Sfp”.
